From patent publication US6410590B1, “Compounds having antitumor activity: process for their preparation and pharmaceutical compositions containing them” (Dr. Reddy's Research Foundation, priority 2000, dated 2002)
Read-outs that look alike come from different tables or passages of the source.

Assays:
Human lymphocytes = experiment: Lymphocyte proliferation, tritiated thymidine incorporation; assay type: cell-based; settings: 1 μM; PHA-stimulated human lymphocytes
Protocol: Human lymphocycles were isolated from whole blood by using Ficoll Hypaque Plus (Amersham). On day one, 1 million lymphocytes were seeded into each well of 96 well plate in 100 μL volume of RPMI 1640 medium containing 10% FCS and Phytohemagglutitin A at 10 μg/ml concentration. Plates were incubated at 37° C. in CO2 incubator for 24 h. Test compounds at various concentrations were added to test wells and only medium with vehicle was added to control wells. After 48 h of incubation […] of tritiated thymidine was added to each well. After 24 h of thymidine addition the cells were harvested and the incorporated radioactivity was determined.
Stimulation index (si) was calculated using the formula, […]

MCF-7/ADR = experiment: Sulforhodamine B growth inhibition, breast panel; assay type: cell-based, human; settings: 48 h, SRB, read-out: GROWTH INHIBITION (GI 50)
Protocol: (§1) Each test compound was screened against a battery of cell lines representing eight different types of cancer. In a typical procedure 1×10^4 cells were seeded into each well of 96-well plates in 100 μL volume of RPMI-1640 containing antibiotics and 10% FCS.
(§2) The plates were incubated at 37° C. in presence of CO2. After 24 h, test compounds were evaluated at five 10 fold dilutions ranging from 100 to 0.01 μM. To each test well 100 μL of test compound solution was added and medium with vehicle was added to control wells and the plates were further incubated. After 48 h of incubation, plates were terminated by Sulforhodamine B method.
(§3) The optical density which is proportional to protein mass, is then read by automated spectrophotometric plate readers at a wavelength of 515 nm.

HIV-1/MN = experiment: Anti HIV activity, P24 antigen in infected PM-1 cells; assay type: cell-based; settings: 96 h; for inhibition at 1 µM: Human immunodeficiency virus 1, PM1, 1 μM, read-out: Percent Inhibition
Protocol: Human CD4+ T cell line PM-1 used in the assay was cultured in RPMI-1640 medium containing 10% Fetal bovine serum, 2 g/L sodium bicarbonate, 100,000 units/L Pencillin-G and 100 mg/L streptomycin. Healthy PM-1 cells were plated on the first day in a 96 well plate at […]. After 24 h HIV-1/MN was added to the culture and incubated for 2 h for infection. Cells were washed twice with PBS to remove the virus in the culture. Different concentrations of DRF compounds ranging from 10^−4 to 10^−8 M were added to the culture and incubated for 96 h. The viability of cells was then assessed by standard MTT assay and the viral antigen P24 levels were estimated by ELSA method. Based on the MTT assay values the P 24 antigen values were corrected.
All the samples were tested in triplicates and the average was used for calculations. AZT was used as standard compound for comparison.

M14 = experiment: Sulforhodamine B growth inhibition, melanoma panel; assay type: cell-based, human; settings: 48 h, SRB, read-out: GROWTH INHIBITION (GI 50)
Protocol: as §1, §2, §3

SW-620 = experiment: Sulforhodamine B growth inhibition, colon panel; assay type: cell-based, human; settings: SW-620, colon, 48 h, SRB, read-out: GROWTH INHIBITION (GI 50)
Protocol: as §1, §2, §3

A498 = experiment: Sulforhodamine B growth inhibition, renal panel; assay type: cell-based, human; settings: 48 h, SRB, read-out: GROWTH INHIBITION (GI 50)
Protocol: as §1, §2, §3

SKOV-3 = experiment: Sulforhodamine B growth inhibition, ovarian panel; assay type: cell-based, human; settings: SKOV-3, ovarian, 48 h, SRB, read-out: GROWTH INHIBITION (GI 50)
Protocol: as §1, §2, §3

H522 = experiment: Sulforhodamine B growth inhibition, lung panel; assay type: cell-based, human; settings: SRB, read-out: GROWTH INHIBITION (GI 50)
Protocol: as §1, §2, §3

U251 = experiment: Sulforhodamine B growth inhibition, CNS panel; assay type: cell-based, human; settings: SRB, read-out: GROWTH INHIBITION (GI 50)
Protocol: as §1, §2, §3

[1] = Plasma triglyceride and body weight reduction in Swiss albino mice; assay type: in vivo; settings: for Percentage reduction TG: plasma triglyceride
Protocol: (b) Plasma triglyceride and body weight reduction in Swiss albino mice Male Swiss albino mice (SAM) were obtained from NIN and housed in DRF animal house. All these animals were maintained under 12 hour light and dark cycle at 25±1° C. Animals were given standard laboratory chow (NIN, Hyderabad, India) and water, ad libitum. SAM of 20-25 g body weight range (Oliver, P., Plancke, M. O., Marzin, D., Clavey, V., Sauzieres, J and Fruchart, J. C. Effects of fenofibrate, gemfibrozil and nicotinic acid on plasma lipoprotein levels in normal and hyperlipidemic mice. Atherosclerosis. 1988. 70: 107-114).
The test compounds were administered orally to Swiss albino mice at 0.3 to 500 mg/kg dose for 6 days. Control mice were treated with vehicle (Chremophore/DMSO/H2O; dose 10 ml/kg).
The blood samples were collected in fed state 1 hour after drug administration on 0 and 6 day of treatment. The blood was collected from the retro-orbital sinus through heparinised capillary in EDTA containing tubes. After centrifugation, plasma sample was separated for triglyceride (Wieland, O. Methods of Enzymatic analysis. Bergermeyer, H. O., Ed., 1963. 211-214; Trinder, P. Ann. Clin. Biochem. 1969. 6: 24-27). Measurement of plasma triglyceride was done using commercial kits (Dr. Reddy's Diagnostic Division, Hyderabad, India).
The formula used to measure percent reduction in blood sugar/triglycerides is given above.

DU145 = experiment: Sulforhodamine B growth inhibition, prostate panel; assay type: cell-based, human; settings: SRB, read-out: GROWTH INHIBITION (GI 50)
Protocol: as §1, §2, §3

tumor cell lines = settings: cited from earlier work
KB = settings: cited from earlier work
[2] = system: P388 lymphocytic leukemia; settings: cited from earlier work
UACC62 = experiment: Sulforhodamine B growth inhibition, melanoma panel; assay type: cell-based; settings: Homo sapiens, UACC-62, 48 h, SRB, read-out: GROWTH INHIBITION (GI 50)
Protocol: as §1, §2, §3

HIV-1(IIIB) = settings: cited from earlier work

| Compound | GI50 (MCF-7/ADR; Homo sapiens, NCI/ADR-RES) [nM] | GI50 (SW-620; Homo sapiens) [nM] | GI50 (A498; Homo sapiens) [nM] | GI50 (SKOV-3; Homo sapiens, SK-OV-3) [nM] | GI50 (H522; Homo sapiens, NCI-H522, 48 h) [nM] | GI50 (U251; Homo sapiens, U-251, 48 h) [nM] | GI50 (DU145; Homo sapiens, DU-145, 48 h) [nM] | GI50 (M14; Homo sapiens) [nM] | other results |
| --- | --- | --- | --- | --- | --- | --- | --- | --- | --- |
| 3,14,19-TRIACETYL 8,17-EPOXY ANDROGRAPHOLIDE [Example-2] | – | – | – | – | – | – | – | – | Stimulation Index (SI) (Human lymphocytes): 32; GI50 (MCF-7/ADR): 5500 nM; Percent Inhibition (HIV-1/MN; 0.1 μM): 75.31%; Percent Inhibition (HIV-1/MN; 1 μM): 77.25%; GI50 (M14): 7500 nM; GI50 (SW-620): 1000 nM; GI50 (A498): 100 nM; GI50 (SKOV-3): 4000 nM; GI50 (H522; 48 h): 20000 nM; GI50 (U251; 48 h): 3000 nM; Percentage reduction TG ([1]; 250 mg/kg orally for 6 days): 19%; GI50 (DU145; 48 h): 20000 nM |
| C=C1CCC2[C@](C)(CC[C@@H](O)[C@@]2(C)CO)C1/C=C/C1=CCOC1=O (stereo partly drawn) [14-deoxy-11,12-didehydroandrographolide] | – | – | – | – | – | – | – | – | cytotoxic activity in tumor cell lines (tumor cell lines): no cytotoxic activity |
| C=C1CC[C@@H]2[C@](C)(CO)[C@H](O)CC[C@@]2(C)[C@@H]1C/C=C1/C(=O)OC[C@H]1O [Andrographolide] | – | – | – | – | – | – | – | – | cytotoxic activity against KB (KB): potent cytotoxic activity; cytotoxic activity against P388 [2]: potent cytotoxic activity |
| CC1(C)OC[C@@]2(C)C3CCC4(CO4)C(C/C=C4/C(=O)OC[C@H]4O)[C@@]3(C)CC[C@H]2O1 (stereo partly drawn) [Example 5, 8,17-EPOXY ANDROGRAPHOLIDE 3,19-ACETONIDE] | – | – | – | – | – | – | – | – | melting point: 179 °C |
| CCC(=O)OC[C@@]1(C)C2CC[C@]3(CO3)C(C/C=C3/C(=O)OC[C@H]3OC(=O)/C=C/c3ccc4c(c3)OCO4)[C@@]2(C)CC[C@H]1OC(=O)CC (stereo partly drawn) [Example 11, 14-[3′,4′-METHYLENEDIOXYCINNAMOYL]3,19-DIPROPIONYL 8,17-EPOXY ANDROGRAPHOLIDE] | – | – | – | – | – | – | – | – | melting point: 76.7 °C |
| C[C@]12CC[C@@H](OC(=O)CCl)[C@@](C)(COC(=O)CCl)C1CC[C@]1(CO1)C2C/C=C1/C(=O)OC[C@H]1OC(=O)CCl (stereo partly drawn) [Example-4, 3,14,19-TRIS CHLORO ACETYL 8,17-EPOXY ANDROGRAPHOLIDE] | 800 | 25000 | 15000 | 450 | 5500 | 800 | 4500 | – | GI50 (UACC62): 550 nM |
| C[C@]12CC[C@@H](O)[C@@](C)(CO)C1CC[C@]1(CO1)C2C/C=C1/C(=O)OC[C@H]1OC(=O)/C=C/c1ccccc1 (stereo partly drawn) [Example-7, 14-CINNAMOYL 3,19-DIHYDROXY 8,17-EPOXY ANDROGRAPHOLIDE] | 2000 | 500 | 9000 | 4000 | 6000 | 6000 | 5500 | 1000 | Stimulation Index (SI) (Human lymphocytes): 25; inhibition at 1 µM (HIV-1/MN): 68.4%; Percentage reduction Body weight ([1]; 100 mg/kg orally for 6 days): 29%; Percentage reduction TG ([1]; 100 mg/kg orally for 6 days): 42%; Percentage reduction Body weight ([1]; 250 mg/kg orally for 6 days): 13%; Percentage reduction TG ([1]; 250 mg/kg orally for 6 days): 52%; Percentage reduction TG ([1]; 500 mg/kg orally for 6 days): 62% |
| CCC(=O)OC[C@@]1(C)C2CC[C@]3(CO3)C(C/C=C3/C(=O)OC[C@H]3OC(=O)/C=C/c3ccccc3)[C@@]2(C)CC[C@H]1OC(=O)CC (stereo partly drawn) [Example-8, 14-CINNAMOYL 3,19-DIPROPIONYL 8,17-EPOXY ANDROGRAPHOLIDE] | 80 | 2500 | 3000 | 10000 | 20000 | 6000 | 4000 | 2500 | – |
| CCC(=O)OC[C@]1(C)C(OC(=O)CC)CC[C@]2(C)C(C/C=C3/C(=O)OCC3OC(=O)/C=C/c3ccc(OC)cc3)[C@]3(CCC12)CO3 (stereo partly drawn) [Example-9, 14-[4′-METHOXYCINNAMOYL]3,19-DIPROPIONYL 8,17-EPOXY ANDROGRAPHOLIDE] | 3000 | 600 | 3000 | 2000 | 4800 | 3000 | 2000 | 750 | – |
| CCC(=O)OC[C@@]1(C)C2CC[C@]3(CO3)C(C/C=C3/C(=O)OC[C@H]3OC(=O)/C=C/c3ccc(OC)c(OC)c3)[C@@]2(C)CC[C@H]1OC(=O)CC (stereo partly drawn) [Example-10, 8,17-EPOXY 14-[3′,4′-DIMETHOXYCINNAMOYL]3,19-DIPROPIONYL ANDROGRAPHOLIDE] | 1500 | 400 | 3500 | 2500 | 7500 | 2000 | 2500 | 800 | – |
| CCC(=O)OC[C@@]1(C)C2CC[C@]3(CO3)C(C/C=C3/C(=O)OC[C@H]3OC(=O)CNC(=O)OC(C)(C)C)[C@@]2(C)CC[C@H]1OC(=O)CC (stereo partly drawn) [Example-13, 14-[N-BOC GLYCINYL]3,19-DIPROPIONYL 8,17-EPOXY ANDROGRAPHOLIDE] | – | – | – | – | – | – | – | – | Stimulation Index (SI) (Human lymphocytes): 24; inhibition at 1 µM (HIV-1/MN): 73.9%; Percentage reduction TG ([1]; 250 mg/kg orally for 6 days): 31% |
| C=C1CC[C@@H]2[C@](C)(CO[C@@H]3O[C@H](CO)[C@@H](O)[C@H](O)[C@H]3O)CCC[C@@]2(C)[C@@H]1CCC1=CCOC1=O [neoandrographolide] | – | – | – | – | – | – | – | – | cytotoxic activity in tumor cell lines (tumor cell lines): no cytotoxic activity |
| Dehydroandrographolide Succinic acid monoester [DASM] | – | – | – | – | – | – | – | – | minimal concentration inhibitory to HIV-1(IIIB) (HIV-1(IIIB)): 1.6 to 3.1 µg/mL |
